Assay [1] relates to MPO-ANCA. Put plainly: Epitope excision MALDI-TOF/TOF MS of patient and healthy Ig with native MPO. The class given is binding. Further details: key: HC: Healthy control; Active disease; Remission. To be noted: human Ig. The text has this: Total immunoglobulin (IgG) was purified from sera using protein A/G PLUS-Agarose Reagent according to commercial protocol (Santa Cruz Biotechnology). Purified IgG was immobilized on CNBr-activated Sepharose 4B (GE Healthcare) in compact reaction columns (CRC, USB Corporation) and exposed to native MPO protein (MPO, Elastin Products Co, Inc) followed by digestion with sequencing grade TPCK-treated trypsin (Worthington). MPO-peptides remaining bound to IgG after digestion were eluted with 0.1% trifluoro acetic acid and analyzed on a 4800 Plus Matrix-Assisted Laser Desorption Ionization Time of Flight Mass Spectrometry (MALDI TOF/TOF MS/MS) in conjunction with ProteinPilot software (AB SCIEX).
To identify epitopes of low titer autoantibodies, ^18O labeling (Mirza et al., J. Proteome Res. 7:3042 (2008)) was used to differentiate between the signal and the noise in the MS and MSMS spectra using the 4 Da shifts between the corresponding spectra of labeled and non-labeled peptides. Mass spectrometry analysis for epitopes recognized by MPO autoantibodies from healthy individuals, and for detection of low ANCA titers in remission samples required the use of isotope H2^18O to increase sensitivity (Cambridge Isotope Laboratories). Samples from healthy individuals (n=10) and MPO-ANCA patients in clinical remission (n=35) were processed in the presence of H2^18O. Incorporation of H2^18O on the carboxyl terminus of each proteolytic fragment of MPO during tryptic digestion, trypsin buffer was made with the isotope H2^18O as a diluent.
MPO-ANCA positive patients (n=45) from the University of North Carolina cohort (UNC) were analyzed in the initial studies. Demographics of the cohort (Table 2) indicate a predominantly Caucasian group. Approximately 40% are diagnosed with microscopic polyangiitis (MPA), 40% with renal-limited disease and 20% are diagnosed with granulomatosis with polyangiitis (GPA). To compare epitope specificities related to disease activity, longitudinal samples were analyzed to include active disease (n=52) and remission (n=35) from the UNC cohort (Tables 3 and 4). Ten healthy subjects were included in the analyses. Purified immunoglobulin (Ig) from sera samples was subjected to analysis by epitope excision MALDI-TOF/TOF mass spectrometry (depicted in FIG. 3A) to identify epitope profiles of autoantibodies reactive with MPO. In order to epitope map low titer anti-MPO antibodies from healthy subjects and from patients in disease remission, an approach was designed using the ^16O-to-^18O exchange technique, an adaptation of a proteomics-based quantification method (Mirza et al., J. Proteome Res. 7:3042 (2008)). Incorporation of H2^18O on the carboxyl termini of proteolytic fragments produces a 4 Da mass shift in the MS spectra, decipherable from background noise. MPO epitopes unique to Ig from patients with active disease were designated ‘exclusive to active disease’; epitopes identified in remission samples were designated ‘persistent during remission’; and those present in samples from healthy subjects were designated asymptomatic or ‘natural’.

Assay [2] concerns anti-MPO antibodies of immunized DR2 Tg mice. Put plainly: Epitope excision MS of IgG from immunized DR2 Tg mice with recombinant mouse MPO. The class given is binding. The conditions noted are these: DR2 Tg mice immunized with MPO aa442-460. As to the method:
Mass spectrometry analysis of ANCA-negative IgG and mouse IgG samples were conducted as above. With the exception of protein substrate, immobilized ANCA-negative IgG were exposed to whole leukocyte lysate preparation from a healthy donor and mouse IgG to recombinant mouse MPO (R&D Systems).
As HLA-MHC II help shape the B and T cell repertoires, and consequently the response to foreign and self-antigens, we wanted to define the epitope specificity of the anti-MPO autoantibodies that could be induced experimentally using DR2 Tg mice. In this way, we could assess development of the anti-MPO antibody response after immunization of a single epitope in the context of a human MHC II. IgG from sera of immunized mice was profiled for anti-MPO epitope specificity using epitope excision MS. DR2 Tg mice developed antibodies targeting the human B cell epitope aa447-459 which is within a conserved region of both murine and human MPO. Unpredictably, immunized DR2 Tg mice initiated a polyclonal response producing autoantibodies against the entire MPO molecule. The epitope profile was astonishingly similar to that of the MPO-ANCA human profile (Table 6), indicative of the critical nature of this epitope.

Assay [3] deals with MPO-ANCA. Put plainly: Peptide ELISA with total IgG (Chapel Hill and Groningen). The class given is binding, human. As to the method:
A total of 195 IgG samples were tested by native MPO or peptide ELISA. Samples included those from healthy controls (n=59), active disease (n=80) and remission patients (n=56). Total IgG was added to wells (2 μg/well) precoated with 1-2 μg peptide (UNC-CH peptide synthesis core). Goat anti-human with alkaline phosphatase conjugate secondary antibody specific to IgG (H+L) (Millipore, Billerica, Mass.) (1:10,000) was added and detected using 1-Step PNPP substrate (Thermo Scientific) and read at λ=405 nm after 30 min. Identical peptides were used in ELISAs at both locations; all other substrates used to test NL cohort samples by ELISAs were prepared in Groningen. Total IgG (1:500˜2 mg/well) was added to precoated wells blocked with 1% BSA. Secondary antibody, goat anti-human conjugated with alkaline phosphatase (A5403; Sigma-Aldrich) (1:5000), was added and detected using p-nitrophenyl-phosphate disodium substrate.
A general note: In an ELISA, binding on a coated surface is turned into a signal by an enzyme label.

In the case of “DHGLPGYNAWR (listed as Homo sapiens) [aa593-603]”, the “Found in samples: Healthy control, Active disease, or Remission, (HC, A, R)” value (shortened to “Found in samples: Healthy control”) in the assay with MPO-ANCA [1] (Table 1) is reported as “A, R, HC”; with MPO-ANCA [1] (Table 6) it was “A, R, HC”. Besides, in assay [2], the “Epitopes found in immunized mice” value was “DHGLPGYNAWR”.
In the case of “FCGLPQPETVGQLGT (listed as Homo sapiens) [aa605-622]”, the “Found in samples: Healthy control” value with MPO-ANCA [1] (Table 1) and in the assay on MPO-ANCA [1] (Table 6) was “A” throughout.
Consider “FPTDQLTPDQER (listed as Homo sapiens) [aa237-248]”, for which the “Found in samples: Healthy control” value is listed as “A, R, HC” in the assay with MPO-ANCA [1] (Table 1) and “A, R, HC” in the assay on MPO-ANCA [1] (Table 6).
“FQDNGR (listed as Homo sapiens) [aa369-374]”: the “Found in samples: Healthy control” value in the assay with MPO-ANCA [1] (Table 1) and in the assay on MPO-ANCA [1] (Table 6) was “A” each time.
On to “FWWENEGVFSMQQR (listed as Homo sapiens) [aa678-691]”, for which the “Found in samples: Healthy control” value in the assay with MPO-ANCA [1] (Table 1) is “A, R, HC”; in the assay with MPO-ANCA [1] (Table 6), “A, R, HC”.
Consider “IANVFTNAFR (listed as Homo sapiens) [aa490-499]”, for which the “Found in samples: Healthy control” value with MPO-ANCA [1] (Table 1) and in the assay on MPO-ANCA [1] (Table 6) was “A” each time. The “Epitopes found in immunized mice” value in assay [2] was “IANVFTNAFR”.
As for “IGLDLPALNMQR (listed as Homo sapiens) [aa579-590]”, the “Found in samples: Healthy control” value with MPO-ANCA [1] (Table 1) is recorded as “A, R, HC”; with MPO-ANCA [1] (Table 6), “A, R, HC”. For the same substance, in assay [2], the “Epitopes found in immunized mice” value was “IGLDLPALNMQR”.
In the case of “IPCFLAGDTR (listed as Homo sapiens) [aa396-405]”, the “Found in samples: Healthy control” value in the assay with MPO-ANCA [1] (Table 1) and with MPO-ANCA [1] (Table 6) was “R” in each case. Besides, the “Epitopes found in immunized mice” value in assay [2] is recorded as “IPCFLAGDMR”.
For the substance “KYLPTYR (listed as Homo sapiens) [aa474-480]”, the “Found in samples: Healthy control” value with MPO-ANCA [1] (Table 1) is given as “A ,R”; in the assay with MPO-ANCA [1] (Table 6) it was “A, R”.
As for “LFEQVMR (listed as Homo sapiens) [aa572-578]”, the “Found in samples: Healthy control” value in the assay with MPO-ANCA [1] (Table 1) is “A, R, HC”; in the assay on MPO-ANCA [1] (Table 6), “A, R, HC”. Further, the “Epitopes found in immunized mice” value in assay [2] is on record as “LFEQVMR”.
In the case of “LYQEAR (listed as Homo sapiens) [aa442-447]”, the “Found in samples: Healthy control” value in the assay with MPO-ANCA [1] (Table 1) and in the assay on MPO-ANCA [1] (Table 6) was “A” in each case.
“NGFPVALAR (listed as Homo sapiens) [aa220-228]”: the “Found in samples: Healthy control” value in the assay on MPO-ANCA [1] (Table 1) and with MPO-ANCA [1] (Table 6) was “A” each time.
“NNIFMSNTYPR (listed as Homo sapiens) [aa715-725]”: the “Found in samples: Healthy control” value in the assay with MPO-ANCA [1] (Table 1) and in the assay on MPO-ANCA [1] (Table 6) was “A” throughout. Besides, the “Epitopes found in immunized mice” value in assay [2] is “NNIFMSNTYPR”.
As to “NQINALTSFVDASMV (listed as Homo sapiens) [aa328-351]”, the “Found in samples: Healthy control” value in the assay on MPO-ANCA [1] (Table 1) and with MPO-ANCA [1] (Table 6) was “A” each time.
On to “QALAQISLPR (listed as Homo sapiens) [aa692-701]”, for which the “Found in samples: Healthy control” value in the assay with MPO-ANCA [1] (Table 1) is reported as “A ,R”; with MPO-ANCA [1] (Table 6), “A, R”.
With “QNQIAVDEIR (listed as Homo sapiens) [aa560-571]”, the “Found in samples: Healthy control” value in the assay with MPO-ANCA [1] (Table 1) is on record as “A, R”; in the assay with MPO-ANCA [1] (Table 6), “A, R”.
“RDYLPLVLGPTAMR (listed as Homo sapiens) [aa460-473]”: the “Found in samples: Healthy control” value is “A, R, HC” in the assay with MPO-ANCA [1] (Table 1) and “A, R, HC” with MPO-ANCA [1] (Table 6).
Turning to “RSPTLGASNR (listed as Homo sapiens) [aa184-193]”, the “Found in samples: Healthy control” value with MPO-ANCA [1] (Table 1) and in the assay with MPO-ANCA [1] (Table 6) was “A” in each case. Further, in assay [2], the “Epitopes found in immunized mice” value is “RSPTLGASNR”.
With “VFFASWR (listed as Homo sapiens) [aa530-536]”, the “Found in samples: Healthy control” value in the assay with MPO-ANCA [1] (Table 1) is listed as “A, R, HC”; with MPO-ANCA [1] (Table 6), “A, R, HC”. Moreover, the “Epitopes found in immunized mice” value in assay [2] is listed as “VFFASWR”.
With “VGPLLACI (listed as Homo sapiens) [aa657-664]”, the “Found in samples: Healthy control” value with MPO-ANCA [1] (Table 1) and in the assay on MPO-ANCA [1] (Table 6) was “A” throughout.
On to “VVLEGGIDPILR (listed as Homo sapiens) [aa537-548]”, for which the “Found in samples: Healthy control” value in the assay with MPO-ANCA [1] (Table 1) and in the assay on MPO-ANCA [1] (Table 6) was “A” throughout. The “Epitopes found in immunized mice” value in assay [2] was “VVLEGGIDPILR”.
With “WDGER (listed as Homo sapiens) [aa437-441]”, the “Found in samples: Healthy control” value in the assay on MPO-ANCA [1] (Table 1) is on record as “A, R”; with MPO-ANCA [1] (Table 6) it was “A, R”.
In the case of “WLPAEYEDGFSLPYG (listed as Homo sapiens) [aa198-219]”, the “Found in samples: Healthy control” value with MPO-ANCA [1] (Table 1) and with MPO-ANCA [1] (Table 6) was “A” in each case.
Take “YQPMEPNPR (listed as Homo sapiens) [aa516-524]”: the “Found in samples: Healthy control” value in the assay on MPO-ANCA [1] (Table 1) is reported as “A, R, HC”; with MPO-ANCA [1] (Table 6), “A, R, HC”. Also, the “ELISA reactivity in clinical remission” value in the assay on MPO-ANCA [3] (UNC and NL cohorts, remission samples) is “reactivity was found in remission samples in both cohorts”. Also, in the assay on MPO-ANCA [3] (active disease samples), the “ELISA reactivity with Ig from active disease samples” value is recorded as “reactive with Ig from active disease samples”.

These data come from patent US20150017665A1, “Peptides and Methods for Detecting MPO-ANCA” (The University of North Carolina at Chapel Hill, priority 2012, published 2015).
